This passage reports MIC results from patent publication EP3072956A1, “Selective culture medium for polymyxin-resistant, gram-negative bacteria” (priority 2015, dated 2016).

Common to all, as to test: MIC determination by broth microdilution (MHB-CA, CLSI)
Common to all, as to format: cell-based
Background: Dilution methods test growth across graded concentrations, often in twofold steps.

The test system of one assay is E. cloacae. Here is the method:
(§1) Determination of MIC values were performed by broth microdilution in Cation-Adjusted Mueller-Hinton broth (MHB-CA) according to the CLSI guidelines (Clinical and Laboratory Standards Institute). Polymyxin B and colistin (Sigma-Aldrich, Saint-Louis) were tested with or without Tween 80 over a range dilution from 0.12 to 128 µg/ml. The surfactant Tween 80, at a final concentration of 0.002%, prevents the binding of polymyxins to multi-array plastic panel. Actually, the use of Tween for determination of MIC of polymyxins is still debatable. MHB-CA broth and 5.10^5 CFU/ml of each tested strain were distributed in each well. Following the EUCAST breakpoints, strains were characterized as susceptible or resistant to polymyxins.

The next assay deals with P. mirabilis. The conditions noted are these: strain Pmir. On the procedure: as §1
In the next assay the test system is P. stuartii. The settings on record: strain Pstu. On the procedure:
as §1

Regarding polymyxin B, the MIC in the assay on E. cloacae (strain 38A10, With Tween80) worked out at 0.25 mg/L; against E. cloacae (strain 38A10, Without Tween80), 0.25 mg/L; in the assay with E. cloacae (strain C28, With Tween80), 16 mg/L; against E. cloacae (strain C28, Without Tween80) it was 16 mg/L; against E. cloacae (strain C129, With Tween80), 0.25 mg/L; against E. cloacae (strain C129, Without Tween80) it was 0.25 mg/L. Besides, the MIC against E. cloacae (strain C144, With Tween80) is 0.12 mg/L; against E. cloacae (strain C144, Without Tween80) it was 0.25 mg/L; against E. cloacae (strain HM, With Tween80), more than 128 mg/L; against E. cloacae (strain HM, Without Tween80), more than 128 mg/L; against P. mirabilis (With Tween80), more than 128 mg/L; against P. mirabilis (Without Tween80), more than 128 mg/L. The MIC in the assay with P. stuartii (With Tween80) and in the assay with P. stuartii (Without Tween80) was more than 128 mg/L throughout.

colistin: the MIC in the assay on E. cloacae (strain 38A10, With Tween80) was determined as 0.12 mg/L; against E. cloacae (strain 38A10, Without Tween80), 0.12 mg/L; in the assay on E. cloacae (strain C28, With Tween80), 32 mg/L; against E. cloacae (strain C28, Without Tween80), 32 mg/L; against E. cloacae (strain C129, With Tween80), 0.12 mg/L; against E. cloacae (strain C129, Without Tween80), 0.12 mg/L. In addition, the MIC was 0.12 mg/L in the assay with E. cloacae (strain C144, With Tween80); 0.12 mg/L against E. cloacae (strain C144, Without Tween80); more than 128 mg/L against E. cloacae (strain HM, With Tween80); more than 128 mg/L against E. cloacae (strain HM, Without Tween80); more than 128 mg/L against P. mirabilis (With Tween80); more than 128 mg/L with P. mirabilis (Without Tween80). The MIC against P. stuartii (With Tween80) and in the assay on P. stuartii (Without Tween80) was more than 128 mg/L in each case.

What is called MIC is the lowest concentration that inhibits growth of the organism. A high value points to a need for much substance.
